In publication PMC7211037 (Journal of bone and mineral research : the official journal …, 2016):

Key:
[1] = target: T1, CaSR (Homo sapiens, UniProt P41180); assay: Intracellular calcium mobilization assay in HEK-CaSR cells; assay type: cell-based; settings: for Maximal response of Ca^2+ (intracellular Ca^2+): normalized to 7.49 mM Ca^2+ + vehicle in pcDNA3.1 cells
T1 sequence (P41180 20-536 limits assumed): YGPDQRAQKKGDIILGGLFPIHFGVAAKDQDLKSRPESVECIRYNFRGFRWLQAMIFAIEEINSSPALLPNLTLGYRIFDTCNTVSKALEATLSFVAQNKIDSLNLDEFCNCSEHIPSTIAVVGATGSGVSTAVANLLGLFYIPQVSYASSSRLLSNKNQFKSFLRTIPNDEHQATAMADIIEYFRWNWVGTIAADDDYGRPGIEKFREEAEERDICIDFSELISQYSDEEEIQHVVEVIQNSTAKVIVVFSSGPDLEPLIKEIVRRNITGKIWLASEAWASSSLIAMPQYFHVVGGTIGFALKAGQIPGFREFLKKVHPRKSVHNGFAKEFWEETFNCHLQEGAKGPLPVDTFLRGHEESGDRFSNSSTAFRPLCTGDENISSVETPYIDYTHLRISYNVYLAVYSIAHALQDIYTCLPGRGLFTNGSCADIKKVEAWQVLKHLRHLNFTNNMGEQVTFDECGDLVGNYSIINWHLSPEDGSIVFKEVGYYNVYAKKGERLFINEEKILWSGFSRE

[2] = test system: human parathyroid adenoma cells; assay: PTH secretion from freshly isolated parathyroid adenoma cells; assay type: cell-based; settings: increasing concentrations of Ca^2+, 30 min at 37°C; normalized to vehicle in 0.5 mM Ca^2+; representative of five independent experiments
[3] = target: T1, CaSR; assay: cAMP accumulation assay in HEK-CaSR cells; assay type: cell-based; settings: 3 mM Ca^2+; GPR64ΔNTF-transfected HEK-CaSR cells (Fig. 7C)
[4] = target: T1, CaSR; settings: patients; cited from earlier work
[5] = full-length GPR64-transfected HEK-CaSR cells, vehicle, mean ± SE

[Ca+2].[Cl-].[Cl-] [Ca^2+, calcium chloride]
Hill slope of Ca^2+ (intracellular Ca^2+) [1, 5]: 2.915 ± 0.159
pEC50 of Ca^2+ (intracellular Ca^2+) [1, 5]: 3.566 ± 0.010
Maximal response of Ca^2+ (intracellular Ca^2+) [1, 5]: 101.70 ± 0.762%
Maximal response of Ca^2+ (intracellular Ca^2+) ([1]; pcDNA3.1-transfected HEK-CaSR cells, vehicle, mean ± SE): 101.5 ± 1.177%
Intracellular Ca^2+ levels (in words) ([1]; vehicle-treated pcDNA3.1-transfected HEK-CaSR cells): elevated the intracellular Ca^2+ levels in a concentration-dependent manner
PTH secretion (in words) [2]: suppressed PTH secretion in a dose-dependent manner
cAMP level with Ca^2+ (in words) [3]: reduced this effect, the cAMP level was still higher than that of cells transfected with empty vector in normocalcemic conditions

C[C@@H](NCCCc1cccc(C(F)(F)F)c1)c1cccc2ccccc12 [cinacalcet]
Serum Ca^2+ normalization (in words) [4]: normalize the serum Ca^2+ in a significant percentage of patients
